From patent US10472341B2, “Bicyclic tetrahydrothiazepine derivatives useful for the treatment of neoplastic and/or infectious diseases” (APEIRON BIOLOGICS AG, priority 2015, dated 2019)
Structures can show the parent of a compound that is named as a salt.

System: Splenocytes of BL6 mice
Assay: Murine splenocytes stimulated with anti-CD3 and anti-CD28 antibodies: IL-2, CD25 on CD4 and CD8 T cells
Assay type: cell-based, mouse
Settings: for production of cytokine: murine splenocytes stimulated with anti-CD3 and anti-CD28; for enhancement of cytokine production: unstimulated murine splenocytes

Row | Structure (SMILES) | CD25+ CD4 T cells (aCD3/28 stim, 0.3 μM) [% gated] | CD25+ CD8 T cells (aCD3/28 stim, 0.3 μM) [% gated] | IL-2 production (aCD3/28 stim, 0.3 μM) [ng/mL] | CD25+ CD4 T cells (aCD3/28 stim, 1 μM) [% gated] | CD25+ CD8 T cells (aCD3/28 stim, 1 μM) [% gated] | IL-2 production (aCD3/28 stim, 1 μM) [ng/mL] | CD25+ CD4 T cells (aCD3/28 stim, 3 μM) [% gated] | CD25+ CD8 T cells (aCD3/28 stim, 3 μM) [% gated] | IL-2 production (aCD3/28 stim, 3 μM) [ng/mL] | CD25+ CD4 T cells (aCD3/28 stim, 10 μM) [% gated] | CD25+ CD8 T cells (aCD3/28 stim, 10 μM) [% gated] | IL-2 production (aCD3/28 stim, 10 μM) [ng/mL] | CD25+ CD4 T cells (aCD3/28 stim, 30 μM) [% gated] | CD25+ CD8 T cells (aCD3/28 stim, 30 μM) [% gated] | IL-2 production (aCD3/28 stim, 30 μM) [ng/mL] | production of cytokine | CD25+ CD4 T cells (unstim, 0.3 μM) [% gated] | CD25+ CD8 T cells (unstim, 0.3 μM) [% gated] | IL-2 production (unstim, 0.3 μM) [ng/mL] | CD25+ CD4 T cells (unstim, 1 μM) [% gated] | other results
1 | N[C@H]1CS(=O)(=O)c2cc(F)c(C(=O)NC3CC3(F)F)cc2N(Cc2ccc(Cl)cc2)C1=O (stereo partly drawn) [Example 1, (3R)-3-amino-5-[(4-chlorophenyl)methyl]-N-(2,2-difluorocyclopropyl)-8-fluoro-1,1,4-trioxo-2,3,4,5-tetrahydro-1λ^6,5-benzothiazepine-7-carboxamide hydrochloride] | 7.48 | 5.86 | 0.29 | 7.42 | 7.17 | 0.45 | 9.19 | 10.90 | 0.61 | 12.15 | 15.76 | 1.46 | 12.01 | 16.51 | 1.71 | strongly enhanced production of cytokine | 0.50 | 0.61 | 0.00 | 0.50 | CD25+ CD8 T cells (unstim, 1 μM): 0.65 % gated; IL-2 production (unstim, 1 μM): 0.00 ng/mL; CD25+ CD4 T cells (unstim, 3 μM): 0.42 % gated; CD25+ CD8 T cells (unstim, 3 μM): 0.61 % gated; IL-2 production (unstim, 3 μM): 0.00 ng/mL; CD25+ CD4 T cells (unstim, 10 μM): 0.41 % gated; CD25+ CD8 T cells (unstim, 10 μM): 0.62 % gated; IL-2 production (unstim, 10 μM): 0.00 ng/mL; CD25+ CD4 T cells (unstim, 30 μM): 0.38 % gated; CD25+ CD8 T cells (unstim, 30 μM): 0.56 % gated; IL-2 production (unstim, 30 μM): 0.00 ng/mL; enhancement of cytokine production: such effect was not detected on unstimulated cells
2 | Cl.N[C@H]1CS(=O)(=O)c2cc(F)c(C(=O)NCCCC(F)(F)F)cc2N(Cc2ccc(Cl)cc2)C1=O [Example 70, (3R)-3-amino-5-[(4-chlorophenyl)methyl]-8-fluoro-1,1,4-trioxo-N-(4,4,4-trifluoro-butyl)-2,3,4,5-tetrahydro-1λ^6,5-benzothiazepine-7-carboxamide hydrochloride] | 8.10 | 10.10 | 0.77 | 9.28 | 10.41 | 0.91 | 11.88 | 14.58 | 1.54 | 13.41 | 16.68 | 1.90 | 11.94 | 17.50 | 1.71 | strongly enhanced production of cytokine | 0.55 | 0.61 | 0.00 | 0.45 | CD25+ CD8 T cells (unstim, 1 μM): 0.65 % gated; IL-2 production (unstim, 1 μM): 0.00 ng/mL; CD25+ CD4 T cells (unstim, 3 μM): 0.48 % gated; CD25+ CD8 T cells (unstim, 3 μM): 0.60 % gated; IL-2 production (unstim, 3 μM): 0.00 ng/mL; CD25+ CD4 T cells (unstim, 10 μM): 0.45 % gated; CD25+ CD8 T cells (unstim, 10 μM): 0.60 % gated; IL-2 production (unstim, 10 μM): 0.00 ng/mL; CD25+ CD4 T cells (unstim, 30 μM): 0.47 % gated; CD25+ CD8 T cells (unstim, 30 μM): 0.64 % gated; IL-2 production (unstim, 30 μM): 0.00 ng/mL; enhancement of cytokine production: such effect was not detected on unstimulated cells
